Results reported in patent US20130079345A1, “[…] ACTIVE DISUBSTITUTED TRIAZINE DERIVATIVES” (BAYER INTELLECTUAL PROPERTY GMBH, priority 2010, published 2013).
pIC50: −log10 of the molar value. Structures can show the parent of a compound that is named as a salt.

Legend:
[1] = test system: CACO-2 cells; assay: Cell viability, CACO-2 cells; type: cell-based, human
Experimental: (§1) HeLa- or MDAMB468-Cells or MATU ADR, H460, DU145, CACO-2 or B16F10 cells were maintained in RPMI 1640 or McCoy's 5A cell culture medium+glutamine (PAN Biotech GmbH, Aidenbach, Germany; order no. P04-22100; P04-05500) supplemented with 10% fetal calf serum “Gold” (PAA Laboratories GmbH, Pasching, Austria; order no. A15-151) and grown at 37° C., 5% CO2. For the cell viability assay, cells were seeded with a density of 400 (Hela cells, DSMZ Braunschweig order no. ACC57) or 800 (MDAMB468 cells, ATCC order no. HTB-132) per well in 25 μL in 384-well plates (Greiner Bio-One, Frickenhausen, Germany; order no. 781080). After overnight incubation at 37° C./5% CO2, 25 nL or 75 nL compound were added to each sample well by using BIOMEK FXP Laboratory Automation Workstation (Beckman Coulter, USA). Wells with cells and 0.1% or 0.3% DMSO in culture medium were used as positive controls, wells with cells and 10 μM staurosporine in culture medium were used as negative controls. The cells were incubated with the compounds for 72 h at 37° C./5% CO2. For measurement of cell viability […] Cell Titer Glo reagent (Promega, Madison, USA; order no. G7573), 1:2 diluted with cell culture medium, was added to each well. The 384well-plates were placed for 2 min on an orbital microplate shaker and incubated for further 10 min at room temperature to stabilize the luminescence signal. Luminescence was measured by Envision Plate Reader (Perkin Elmer, USA). EC50 values were calculated with the software Excel Fit (IDBS, Guildford, UK) from 3-fold dilution series comprising at least 8 concentrations in duplicates.
(§2) Cultivated tumour cells (NCl-H460, human non-small cell lung carcinoma cells, ATCC HTB-177; DU 145, hormone-independent human prostate carcinoma cells, ATCC HTB-81; HeLa-MaTu, human cervical carcinoma cells, EPO-GmbH, Berlin; HeLa-MaTu-ADR, multidrug-resistant human cervical carcinoma cells, EPO-GmbH, Berlin; HeLa human cervical tumour cells, ATCC CCL-2; Caco-2 human colorectal carcinoma, ATCC HTB-37; B16F10 mouse melanoma cells, ATCC CRL-6475) were plated at a density of 5,000 cells/well (DU145, HeLa-MaTu-ADR), 3,000 cells/well (NCl-H460, HeLa-MaTu, HeLa), 1,500 cells/well (Caco-2), or 1,000 cells/well (B16F10) in a 96-well multititer plate in 200 μL of their respective growth medium supplemented with 10% fetal calf serum. After 24 hours, the cells of one plate (zero-point plate) were stained with crystal violet (see below), while the medium of the other plates was replaced by fresh culture medium (200 μl), to which the test substances were added in various concentrations (0 μM as well as in the range of 0.001 to 10 μM; the final concentration of the solvent dimethyl sulfoxide was 0.5%). The cells were incubated in the presence of test substances for 4 days. Cell proliferation was determined by staining the cells with crystal violet: The cells were fixed by adding 20 μl/measuring point of an 11% glutaric aldehyde solution at room temperature for 15 minutes. After three washing cycles of the fixed cells with water, the plates were dried at room temperature. […] The extinction was determined by photometry at a wavelength of 595 nm. The change of cell number, in percent, was calculated by normalization of the measured values to the extinction values of the zero-point plate (equivalent to 0%) and the extinction of the untreated (0 μm) cells (equivalent to 100%). The IC50 values were determined by means of a 4 parameter fit using the company's own software.

[2] = test system: B16F10 cells; assay: Cell viability, B16F10 cells; type: cell-based, mouse
Experimental: as §1, §2

Row | SMILES | pIC50 ([1]; Homo sapiens, Caco-2) | pIC50 ([2]; Mus musculus, B16-F10) | pIC50 ([1]; hydrochloride) | pIC50 ([2]; hydrochloride)
1 | COc1cc(F)ccc1-c1ncnc(Nc2cccc(CS(N)(=O)=O)c2)n1 [Compound B2, 3-[(4-(4-Fluoro-2-methoxyphenyl)-1,3,5-triazin-2-yl)amino]benzenemethanesulfonamide] | 5.80 | 5.80 | – | –
2 | NS(=O)(=O)Cc1cccc(Nc2ncnc(-c3ccccc3OCc3ccccc3)n2)c1 [B13′, 3-[(4-(2-Benzyloxyphenyl)-1,3,5-triazin-2-yl)amino]benzenemethanesulfonamide trifluoroacetic acid salt] | 6.43 | 6.49 | – | –
3 | COc1cc(F)ccc1-c1ncnc(Nc2cccc(CS(N)(=O)=O)c2)n1 [B2′, 1-(3-{[4-(4-fluoro-2-methoxyphenyl)-1,3,5-triazin-2-yl]amino}phenyl)methanesulfonamide hydrochloride] | – | – | 5.82 | 5.96

Continued, values first:

Row | pIC50 ([1]; Homo sapiens, Caco-2) | pIC50 ([2]; Mus musculus, B16-F10) | pIC50 ([1]; hydrochloride) | pIC50 ([2]; hydrochloride) | SMILES
4 | 5.37 | 5.36 | – | – | COc1ccccc1-c1ncnc(Nc2cccc(CS(N)(=O)=O)c2)n1 [B1′, 3-[(4-(2-Methoxyphenyl)-1,3,5-triazin-2-yl)amino]benzenemethanesulfonamide trifluoroacetic acid salt]
5 | 5.96 | 6.00 | – | – | COc1ccccc1-c1ncnc(Nc2cccc(S(N)(=O)=O)c2)n1 [C1′, 3-[(4-(2-Methoxyphenyl)-1,3,5-triazin-2-yl)amino]benzenesulfonamide trifluoroacetic acid salt]
